Assay results: ChEMBL document CHEMBL1671792, “Conformationally constrained farnesoid X receptor (FXR) agonists: heteroaryl replacements of the naphthalene” (Bioorg Med Chem Lett, 2011)
In brackets after ≈: the same amount, converted by molar mass.

Columns and labels:
[1] = test system: Mus musculus; assay: Antidiabetic activity in diet-induced obese mouse assessed as change in body weight at 10 mg/kg, po for 4 weeks measured after 2 weeks (reference value: 30.3+/-0.8 g); assay type: functional
[2] = test system: Mus musculus; assay: Antidiabetic activity in diet-induced obese mouse assessed as total cholesterol level at 10 mg/kg, po for 4 weeks (reference value: 140.0 +/-2.8 mg/dL); assay type: functional
[3] = test system: Mus musculus; assay: Antidiabetic activity in diet-induced obese mouse assessed as change in body weight at 30 mg/kg, po for 4 weeks measured after 4 weeks (reference value: 29.6+/-0.9 g); assay type: functional
[4] = test system: Mus musculus; assay: Antidiabetic activity in diet-induced obese mouse assessed as glycerol level at 30 mg/kg, po for 4 weeks (reference value: 11.0 +/-1.3 mg/dL); assay type: functional
[5] = Oral bioavailability in Beagle dog; assay type: ADME, organism-based, Canis lupus familiaris; conditions: in vivo
[6] = Clearance in iv dosed mouse; assay type: ADME, organism-based; conditions: in vivo
[7] = Volume of distribution at steady state in iv dosed cynomolgus monkey; assay type: ADME, organism-based, Macaca fascicularis; conditions: in vivo, read-out: Vdss
[8] = test system: Mus musculus; assay: Antidiabetic activity in diet-induced obese mouse assessed as triglyceride level at 10 mg/kg, po for 4 weeks (reference value: 54.4 +/-1.5 mg/dL); assay type: functional
[9] = test system: Mus musculus; assay: Antidiabetic activity in diet-induced obese mouse assessed as serum glucose level at 100 mg/kg, po for 4 weeks (reference value: 316.5 +/-13.2 mg/dL); assay type: functional
[10] = species on record: Homo sapiens; assay: Selectivity ratio of EC50 for human FXR to EC50 for human RXRalpha
[11] = species on record: Homo sapiens; assay: Selectivity ratio of EC50 for human FXR to EC50 for human LXRbeta
[12] = Volume of distribution at steady state in iv dosed Beagle dog; assay type: ADME, organism-based, Canis lupus familiaris; conditions: in vivo, read-out: Vdss
[13] = Oral bioavailability in rat; assay type: ADME, organism-based; conditions: in vivo
[14] = test system: Mus musculus; assay: Antidiabetic activity in diet-induced obese mouse assessed as change in body weight at 100 mg/kg, po for 4 weeks measured after 2 weeks (reference value: 29.1+/-0.8 g); assay type: functional
[15] = Permeability across MDCK cell membrane; assay type: ADME, cell-based, Canis lupus familiaris; conditions: dog
[16] = test system: Mus musculus; assay: Antidiabetic activity in diet-induced obese mouse assessed as NEFA level at 30 mg/kg, po for 4 weeks (reference value: 0.46 +/-0.02 mEq/dL); assay type: functional
[17] = molecular target: Cytochrome P450 2C9 (Homo sapiens, UniProt P11712); assay: Inhibition of CYP2C9 in human liver microsome; assay type: microsomes
[18] = species on record: Homo sapiens; assay: Selectivity ratio of EC50 for human FXR to EC50 for human LXRalpha
[19] = test system: Mus musculus; assay: Antidiabetic activity in diet-induced obese mouse assessed as beta-hydroxybutyrate level at 100 mg/kg, po for 4 weeks (reference value: 1.7 +/-0.1 mg/dL); assay type: functional
[20] = Clearance in iv dosed cynomolgus monkey; assay type: ADME, organism-based, Macaca fascicularis; conditions: in vivo
[21] = test system: Mus musculus; assay: Antidiabetic activity in diet-induced obese mouse assessed as NEFA level at 100 mg/kg, po for 4 weeks (reference value: 0.46 +/-0.02 mEq/dL); assay type: functional
[22] = test system: Mus musculus; assay: Antidiabetic activity in diet-induced obese mouse assessed as glycerol level at 10 mg/kg, po for 4 weeks (reference value: 11.0 +/-1.3 mg/dL); assay type: functional
[23] = Oral bioavailability in mouse; assay type: ADME, organism-based; conditions: in vivo
[24] = species on record: Homo sapiens; assay: Selectivity ratio of EC50 for human FXR to EC50 for human LRH
[25] = test system: Mus musculus; assay: Antidiabetic activity in diet-induced obese mouse assessed as change in body weight at 30 mg/kg, po for 4 weeks measured after 2 weeks (reference value: 29.6+/-0.9 g); assay type: functional
[26] = test system: Canis familiaris; assay: Dose normalized AUC in orally dosed Beagle dog; assay type: ADME, organism-based, Canis lupus familiaris; conditions: in vivo, po
[27] = Half life in iv dosed Beagle dog; assay type: ADME, organism-based, Canis lupus familiaris; conditions: in vivo
[28] = test system: Mus musculus; assay: Antidiabetic activity in diet-induced obese mouse assessed as change in body weight at 100 mg/kg, po for 4 weeks measured after 1 week (reference value: 29.1+/-0.8 g); assay type: functional
[29] = molecular target: T1, Bile acid receptor (Homo sapiens) (UniProt Q96RI1); assay: Agonist activity at human FXR LBD assessed as SRC1 peptide recruitment by FRET assay relative to GW 4064; assay type: functional
T1 sequence (whole entry): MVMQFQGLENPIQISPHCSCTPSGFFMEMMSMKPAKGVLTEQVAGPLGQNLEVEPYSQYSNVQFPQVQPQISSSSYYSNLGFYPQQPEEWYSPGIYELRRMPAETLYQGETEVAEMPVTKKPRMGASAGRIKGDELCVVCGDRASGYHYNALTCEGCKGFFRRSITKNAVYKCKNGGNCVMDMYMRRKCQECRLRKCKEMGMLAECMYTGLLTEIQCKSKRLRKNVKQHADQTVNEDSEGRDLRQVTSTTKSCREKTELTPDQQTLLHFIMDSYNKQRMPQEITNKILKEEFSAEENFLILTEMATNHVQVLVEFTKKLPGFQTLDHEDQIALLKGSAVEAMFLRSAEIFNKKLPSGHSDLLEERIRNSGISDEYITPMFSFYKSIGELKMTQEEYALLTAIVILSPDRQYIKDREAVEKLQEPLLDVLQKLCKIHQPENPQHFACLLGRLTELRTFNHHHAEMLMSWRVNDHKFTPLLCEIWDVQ

[30] = Solubility of compound in fasted state-simulated intestinal fluid at pH 6.5; assay type: physicochemical; conditions: simulated gi fluid
[31] = species on record: Homo sapiens; assay: Selectivity ratio of EC50 for human FXR to EC50 for human PXR
[32] = test system: Mus musculus; assay: Antidiabetic activity in diet-induced obese mouse assessed as serum insulin level at 100 mg/kg, po for 4 weeks (reference value: […]); assay type: functional
[33] = test system: Mus musculus; assay: Antidiabetic activity in diet-induced obese mouse assessed as change in body weight at 30 mg/kg, po for 4 weeks measured after 3 weeks (reference value: 29.6+/-0.9 g); assay type: functional
[34] = test system: Mus musculus; assay: Antidiabetic activity in diet-induced obese mouse assessed as beta-hydroxybutyrate level at 30 mg/kg, po for 4 weeks (reference value: 1.7 +/-0.1 mg/dL); assay type: functional
[35] = molecular target: T2, Bile acid receptor (Homo sapiens, UniProt Q96RI1); assay: Agonist activity at human FXR LBD assessed as SRC1 peptide recruitment by FRET assay; assay type: functional
T2 sequence (Q96RI1 whole entry): T1 sequence (whole entry)

[36] = test system: Mus musculus; assay: Antidiabetic activity in diet-induced obese mouse assessed as glycerol level at 100 mg/kg, po for 4 weeks (reference value: 11.0 +/-1.3 mg/dL); assay type: functional
[37] = test system: Mus musculus; assay: Antidiabetic activity in diet-induced obese mouse assessed as change in body weight at 10 mg/kg, po for 4 weeks measured after 1 week (reference value: 30.3+/-0.8 g); assay type: functional

Sequence of Cytochrome P450 2C9 (P11712 whole entry): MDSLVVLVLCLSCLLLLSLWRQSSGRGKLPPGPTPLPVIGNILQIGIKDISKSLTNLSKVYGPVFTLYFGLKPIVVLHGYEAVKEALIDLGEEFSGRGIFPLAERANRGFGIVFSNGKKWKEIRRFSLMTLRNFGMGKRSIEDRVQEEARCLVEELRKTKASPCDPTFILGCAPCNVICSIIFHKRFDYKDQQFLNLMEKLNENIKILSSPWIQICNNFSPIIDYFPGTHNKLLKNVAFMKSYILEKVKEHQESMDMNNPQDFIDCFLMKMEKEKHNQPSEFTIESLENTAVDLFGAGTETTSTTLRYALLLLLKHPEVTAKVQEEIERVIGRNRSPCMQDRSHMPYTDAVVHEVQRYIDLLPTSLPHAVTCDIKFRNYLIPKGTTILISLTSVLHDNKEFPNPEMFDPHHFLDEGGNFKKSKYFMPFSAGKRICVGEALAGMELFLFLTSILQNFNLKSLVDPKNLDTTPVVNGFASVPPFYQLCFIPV

CC(C)c1onc(-c2c(Cl)cccc2Cl)c1COc1ccc(-c2ccc3nc(C(=O)O)ccc3c2)cc1
Activity [1]: 29.3 g
Activity [2]: 108.5 mg/dL
Activity [3]: 27.3 g
Activity [4]: 10 mg/dL
bioavailability [5]: 23%
clearance [6]: 23 mL/min/kg
Vd [7]: 0.15 L/kg
Activity [8]: 55.8 mg/dL
Activity [9]: 241.4 mg/dL
Ratio EC50 [10]: 100
Ratio EC50 [11]: 100
Vd [12]: 0.31 L/kg
bioavailability [13]: 23%
Activity [14]: 23.2 g
Papp [15]: 18.3 ×10⁻⁶ cm/s
Activity [16]: 0.52 mEq/dL
IC50 [17]: 4400 nM
Ratio EC50 [18]: 100
Activity [19]: 3.3 mg/dL
clearance [20]: 3.1 mL/min/kg
Activity [21]: 0.65 mEq/dL
Activity [22]: 10.8 mg/dL
bioavailability [23]: 42%
Ratio EC50 [24]: 100
Activity [25]: 27.8 g
AUC [26]: 1260 ng·kg·h/mg/mL
half-life [27]: 1.83 h
Activity [28]: 25.6 g
Activity [29]: 105%
solubility [30]: 1 ng/mL (≈ 1.87 nM)
Ratio EC50 [31]: 100
Activity [32]: 0.34 ng/mL
Activity [33]: 27.5 g
Activity [34]: 1.8 mg/dL
EC50 [35]: 120 nM
Activity [36]: 9.7 mg/dL
Activity [37]: 29.4 g
